Experimental data: patent publication US9745267B2, “Compounds as modulators of RORC” (Boehringer Ingelheim International GmbH, priority 2013, dated 2017)

target: T1, RORγt (hRORC LBD) (Homo sapiens, UniProt P51449); assay: RGA Assay: nuclear receptor transactivation assay, RORγt transactivation of a luciferase reporter; format: cell-based; settings: transiently transfected HEK 293 cells, Gal4DBD hRORC LBD, 20-24 hours incubation
T1 construct: expressed in transfected cells; host or cells: HEK 293 (transient cotransfection with pGL4.3 luc2P/GAL4UAS/Hygro reporter)
T1 sequence (P51449 269-508 limits assumed): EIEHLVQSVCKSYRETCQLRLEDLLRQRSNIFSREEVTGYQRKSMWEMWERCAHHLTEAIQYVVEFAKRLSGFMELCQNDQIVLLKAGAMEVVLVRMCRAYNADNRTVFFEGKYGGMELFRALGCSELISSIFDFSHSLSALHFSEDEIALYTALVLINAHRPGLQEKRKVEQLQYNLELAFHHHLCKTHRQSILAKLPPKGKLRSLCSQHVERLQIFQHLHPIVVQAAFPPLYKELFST
Procedure: A nuclear receptor transactivation assay was performed to quantitate the ability of test compounds to inhibit RORγt transactivation of a luciferase reporter. A similar assay is described in: Khan et al., Bioorganic & Medicinal Chemistry Letters 23 (2013), 532-536. The system uses transiently transfected HEK 293 cells cotransfected with two plasmids (pGL4.3, luc2P/GAL4UAS/Hygro, and pBIND, Gal4DBD hRORC LBD1-3). The positive control is co-transiently transfected with both plasmids, and the negative control contains the pGL4.3 promoter sequence. Assays were assembled in 384 well plates where transiently transfected cells and test compound at varying concentrations were incubated for 20-24 hours. The next day, assays plates are taken out and equilibrated at RT for 20-30 minutes. Bright-Glo™ Luciferase Assay System is used to detect Luciferase production. After addition of Bright GLO detection reagent, the plates were incubated at RT for 20 minutes. The plates were read on an Envision plate reader to measure luminescence signal. The RLU signal is converted to POC relative to control and blank wells.
Compound Dilution Buffer:
Bright Glo Luciferase Assay System: Promega #E2620
Thaw lysis buffer provided in kit, add 100 mL lysis buffer to substrate powder.

SMILES	IC50 [nM]
CNS(=O)(=O)c1ccc(CNC(=O)N2CC3(CCCC3)c3cc(-c4ccccc4-c4cnco4)ccc32)cc1 [Example 33]	750
CNS(=O)(=O)c1ccc(CNC(=O)N2CC3(CCCC3)c3cc(-c4ccccc4C(=O)OC)ccc32)cc1 [Example 19]	1100
CCS(=O)(=O)c1ccc(CNC(=O)N2CC3(CCCC3)c3cc(-c4cc(CN5CCC(C#N)CC5)ccc4C)ccc32)cc1 [Example 123]	600
CNS(=O)(=O)c1ccc(CNC(=O)N2CC3(CCCC3)c3cc(-c4cc(F)ccc4C)ccc32)cc1 [Example 16]	960
CCC1(C)CN(C(=O)NCc2ccc(S(=O)(=O)NC)cc2)c2ccc(-c3ccc(F)cc3C)cc21 (stereo not drawn) [Example 53]	1200
CNS(=O)(=O)c1ccc(CNC(=O)N2CC(C)(C)c3cc(-c4ccc(OC)cc4C(F)(F)F)ccc32)cc1 [Example 58]	880
CCS(=O)(=O)c1ccc(CNC(=O)N2CC3(CCCC3)c3cc(-c4cc(F)ccc4CC#N)ccc32)cc1 [Example 72]	1200
CNc1ccc(-c2ccc3c(c2)C2(CCCC2)CN3C(=O)NCc2ccc(S(=O)(=O)NC)cc2)c(C)c1 [Example 44]	1100
CNS(=O)(=O)c1ccc(CNC(=O)N2CC3(CCCC3)c3cc(-c4ccc(N)cc4C(=O)OC)ccc32)cc1 [Example 37]	920
CNS(=O)(=O)c1ccc(CNC(=O)N2CC3(CCCC3)c3cc(-c4cncnc4C(C)C)ccc32)cc1 [Example 18]	1000
CNS(=O)(=O)c1ccc(CNC(=O)N2CC3(CCCC3)c3cc(-c4cc(F)ccc4C(F)(F)F)ccc32)cc1 [Example 7]	340
CNS(=O)(=O)c1ccc(CNC(=O)N2CC3(CCCC3)c3cc(-c4cccc5cccnc45)ccc32)cc1 [Example 4]	1500
CNS(=O)(=O)c1ccc(CNC(=O)N2CC3(CCCC3)c3cc(Oc4cccc(OC(F)(F)F)c4)ccc32)cc1 [Example 61]	730
CCS(=O)(=O)c1ccc(CNC(=O)N2CC3(CCCC3)c3cc(-c4cncnc4C(C)C)ccc32)cc1 [Example 76]	610
CCS(=O)(=O)c1ccc(CNC(=O)N2CC3(CCCC3)c3cc(-c4ccc(OC)cc4C(F)(F)F)ccc32)c(OC)c1 [Example 104]	350
CNS(=O)(=O)c1ccc(CNC(=O)N2CC3(CCCC3)c3cc(-c4cnccc4C(F)(F)F)ccc32)cc1 [Example 25]	1300
CCS(=O)(=O)c1ccc(CNC(=O)N2CC(C)(C3CC3)c3cc(-c4cncnc4C(C)C)ccc32)cc1 (stereo not drawn) [Example 113]	530
CCOCc1ccccc1-c1ccc2c(c1)C1(CCCC1)CN2C(=O)NCc1ccc(S(=O)(=O)NC)cc1 [Example 21]	1100
CCS(=O)(=O)c1ccc(CNC(=O)N2CC3(CCCC3)c3cc(-c4cc(CN5CCS(=O)(=O)CC5)ccc4C)ccc32)cc1 [Example 124]	1400
CCS(=O)(=O)c1ccc(CNC(=O)N2CC3(CCCC3)c3cc(-c4ccc(C)cc4C#N)ccc32)cc1 [Example 70]	1300

SMILES	IC50 [nM]
CCC1(C)CN(C(=O)NCc2ccc(S(=O)(=O)NC)cc2)c2ccc(-c3ccc(OC)cc3C(F)(F)F)cc21 (stereo not drawn) [Example 57]	780
CNS(=O)(=O)c1ccc(CNC(=O)N2CC3(CCCC3)c3cc(-c4cc(S(=O)(=O)N(C)C)ccc4C)ccc32)cc1 [Example 13]	840
CNS(=O)(=O)c1ccc(CNC(=O)N2CC3(CCCC3)c3cc(-c4ccccc4C)ccc32)cc1 [Example 2]	920
CNS(=O)(=O)c1ccc(CNC(=O)N2CC3(CCCC3)c3cc(-c4ccccc4OC(F)(F)F)ccc32)cc1 [Example 73]	460
CNS(=O)(=O)c1ccc(CNC(=O)N2CC3(CCCC3)c3cc(-c4cccc(F)c4CC#N)ccc32)cc1 [Example 43]	1100
CCS(=O)(=O)c1ccc(CNC(=O)N2CC3(CCCC3)c3cc(-c4c(OC)nc(N(C)C)nc4C4CC4)ccc32)cc1 [Example 130]	310
CCS(=O)(=O)c1ccc(CNC(=O)N2CC(C)(C3CCC3)c3cc(-c4cncnc4C(C)C)ccc32)cc1 (stereo not drawn) [Example 116]	1000
CNS(=O)(=O)c1ccc(CNC(=O)N2CC3(CCCC3)c3cc(-c4ccccc4C(C)(C)O)ccc32)cc1 [Example 86]	1000
CNS(=O)(=O)c1ccc(CNC(=O)N2CC3(CCCC3)c3cc(-c4ccc(F)cc4C(=O)OC)ccc32)cc1 [Example 85]	1300
CCC(C)c1ncncc1-c1ccc2c(c1)C1(CCCC1)CN2C(=O)NCc1ccc(S(C)(=O)=O)cc1 (stereo not drawn) [Example 107]	1500
CCS(=O)(=O)c1ccc(CNC(=O)N2CC3(CC3)c3cc(-c4c(OC)ncnc4C4CC4)ccc32)cc1 [Example 125]	1100
CCS(=O)(=O)c1ccc(CNC(=O)N2CC3(CCCC3)c3cc(-c4ccc(OC)cc4C(F)(F)F)ccc32)cc1 [Example 66]	410
CCC1(CC)CN(C(=O)NCc2ccc(S(=O)(=O)NC)cc2)c2ccc(-c3ccc(F)cc3C)cc21 [Example 52]	1100
CCS(=O)(=O)c1ccc(CNC(=O)N2CC3(CCCC3)c3cc(-c4ccc(CO)cc4C)ccc32)cc1 [Example 69]	1100
CCS(=O)(=O)c1ccc(CNC(=O)N2CC3(CCCC3)c3cc(-c4ccc(C#N)cc4C)ccc32)cc1 [Example 71]	740
CNS(=O)(=O)c1ccc(CNC(=O)N2CC3(CCCC3)c3cc(-c4c(C)ccc5c4cnn5C)ccc32)cc1 [Example 32]	750
CCOC(=O)c1ccccc1-c1ccc2c(c1)C1(CCCC1)CN2C(=O)NCc1ccc(S(=O)(=O)NC)cc1 [Example 24]	1300
CNS(=O)(=O)c1ccc(CNC(=O)N2CC3(CCCC3)c3cc(-c4ccc(O)cc4C#N)ccc32)cc1 [Example 88]	910
CNS(=O)(=O)c1ccc(CNC(=O)N2CC3(CCCC3)c3cc(-c4cc5c(cnn5C)cc4C)ccc32)cc1 [Example 30]	740
CNS(=O)(=O)c1ccc(CNC(=O)N2CC3(CCCC3)c3cc(Oc4cc(C(F)(F)F)ccc4C)ccc32)cc1 [Example 60]	250

SMILES	IC50 [nM]
CNS(=O)(=O)c1ccc(CNC(=O)N2CC3(CCCC3)c3cc(-c4ccc(OC)nc4C)ccc32)cc1 [Example 68]	1900
CNS(=O)(=O)c1ccc(CNC(=O)N2CC3(CCCC3)c3cc(-c4cc(CN5CCC(O)C5)ccc4C)ccc32)cc1 (stereo not drawn) [Example 103]	1800
CNS(=O)(=O)c1ccc(CNC(=O)N2CC3(CCCC3)c3cc(-c4cc(OC)c(OC)cc4C(=O)OC)ccc32)cc1 [Example 26]	1400
CNS(=O)(=O)c1ccc(CNC(=O)N2CC3(CCCC3)c3cc(-c4cc5cnn(C)c5cc4C)ccc32)cc1 [Example 29]	720
COc1ccc(-c2ccc3c(c2)C2(CCCC2)CN3C(=O)NCc2ccc(C#N)cc2)c(C(F)(F)F)c1 [Example 82]	1100
CNS(=O)(=O)c1ccc(CNC(=O)N2CC3(CCCC3)c3cc(-c4cccc5[nH]nc(C)c45)ccc32)cc1 [Example 47]	1500
CCS(=O)(=O)c1ccc(CNC(=O)N2CC3(CCCC3)c3cc(-c4cnc(N(C)C)nc4C4CC4)ccc32)cc1 [Example 119]	320
CCS(=O)(=O)c1ccc(CNC(=O)N2CC3(CCCC3)c3cc(-c4c(C)ccnc4OC)ccc32)cc1 [Example 114]	500
COCCOc1cc(S(C)(=O)=O)ccc1CNC(=O)N1CC2(CCCC2)c2cc(-c3ccc(OC)cc3C(F)(F)F)ccc21 [Example 101]	1100
CCS(=O)(=O)c1ccc(CNC(=O)N2CC3(CCC3)c3cc(-c4c(OC)ncnc4C4CC4)ccc32)cc1 [Example 128]	210
CN(C)c1ncc(-c2ccc3c(c2)C2(CCCC2)CN3C(=O)NCc2ccc(S(C)(=O)=O)cc2)c(C(F)(F)F)n1 [Example 106]	650
CNS(=O)(=O)c1ccc(CNC(=O)N2CC3(CCCC3)c3cc(-c4cccc(F)c4C)ccc32)cc1 [Example 77]	760
CNS(=O)(=O)c1ccc(CNC(=O)N2CC3(CCCC3)c3cc(-c4ccc(F)cc4C)ccc32)cc1 [Example 1]	840
CNS(=O)(=O)c1ccc(CNC(=O)N2CC3(CCCC3)c3cc(-c4ccc(C#N)cc4C)ccc32)cc1 [Example 15]	940
CNS(=O)(=O)c1ccc(CNC(=O)N2CC3(CCCC3)c3cc(Oc4cc(OC)ccc4C)ccc32)cc1 [Example 63]	1400
COc1ccc(-c2ccc3c(c2)C2(CCCC2)CN3C(=O)NCc2ccc(S(C)(=O)=O)cc2OC)c(C(F)(F)F)c1 [Example 105]	430
COc1ncnc(C(F)(F)F)c1-c1ccc2c(c1)C1(CCCC1)CN2C(=O)NCc1ccc(S(C)(=O)=O)cc1 [Example 110]	600
CCS(=O)(=O)c1ccc(CNC(=O)N2CC3(CCCC3)c3cc(-c4ccc(F)cc4C)ccc32)cc1 [Example 28]	1200
CNS(=O)(=O)c1ccc(CNC(=O)N2CC3(CCCC3)c3cc(-c4ccncc4C(F)(F)F)ccc32)cc1 [Example 36]	890
CNS(=O)(=O)c1ccc(CNC(=O)N2CC3(CCCC3)c3cc(-c4ccc(F)cc4C(F)(F)F)ccc32)cc1 [Example 8]	420
